Reference: patent US5639782A, “Neolignan derivatives as platelet activating factor receptor antagonists and 5-lipoxygenase inhibitors” (Center for Innovative Technology, priority 1994, dated 1997)
“Also recorded” adds a separate entry of the source. Read-outs that look alike come from different tables or passages of the source.

Key:
PAF receptor = conditions: literature report; cited from earlier work
[1] = test system: PAF induced platelet aggregation (human platelets); test: PAF induced platelet aggregation assay; type: cell-based; conditions: for PAF antagonist activity (in words): in vitro
Procedure: In vitro experiments have been conducted to determine the PAF and 5-lipoxygenase inhibitory activity of a variety of synthesized, neolignan derivative compounds. In particular, the novel compounds are either 2,4-diaryl-1,3-dithiolanes or futoenone derivatives. PAF antagonist activity was determined according to the method of Shen et al., in Methods of Ezymology, Vol. 187, 447-449 (1990), and that article is herein incorporated by reference. The 5-lipoxygenase inhibitory activity was determined according to an assay discussed below.
The following outlines a platelet aggregation assay procedure. Blood is obtained from human volunteers who have not ingested aspirin or steroid drugs for ten days and is stored with a 3.8% trisodium citrate anticoagulant. Heparin is not used as the anticoagulant since it interferes with platelet aggregation. Citrated blood is centrifuged at 220 g for 10 min. at room temperature to obtain platelet-rich plasma (PRP). The platelet count is determined and is adjusted to […]. Platelet-poor plasma (PPP) is prepared by centrifuging PRP at 1000 g for 20 min. to pelletize the platelets. PPP is used to calibrate the aggregometer. Washed platelet suspension (WPS) is prepared from PRP by underlayering the latter with Ficoll-Paque (9:2, v/v) and centrifuging at 750 g for 15 min. at room temperature. The platelets form a band between the plasma and the separation medium and are carefully collected and suspended in Tyrode's solution (in mM: NaCl, 137; KCl, 2.7; NAHCO3, 11.9; NaH2 -PO4, 0.42; MgCl2, 1.0; CaCl2, 1.0; HEPES, 5.0; and dextrose, 1 g/liter, with 0.25% BSA, w/v, pH 7.4). Prostacyclin (PGI2) (1 ng/ml) can be added to the suspension to prevent platelet activation; however, it should be understood that the inhibitory activity of PGI2 disappears completely 10 min. from the time of addition at room temperature. The suspension is then spun at 1000 g for 10 min. and the pellet is resuspended in Tyrode's buffer for platelet aggregation. The suspensions are maintained at 37° C. and stirred constantly at 1000 revolutions per min (rpm). A known amount of PAF, such as 0.11 μM PAF, is added to the suspension three to five minutes after the addition of the potential PAF antagonists (the synthesized compounds). […] To obtain the IC50 value, varying concentrations of a potential antagonist need to be added to the test suspensions with the percentage inhibition being determined for each concentration of the antagonist, and the IC50 value is obtained from a plot of the percentage inhibition versus concentration of the antagonist.

[2] = PAF induced platelet aggregation

SMILES | PAF receptor antagonism (in words) (PAF receptor) | PAF antagonist activity (in words) [1, 2] | other results
C=CCC1=C[C@@]2(OC)C(=CC1=O)O[C@H](c1ccc(OC)c(OC)c1)[C@H]2C [kadsurenone] | potent, specific and competitive inhibitor of PAF at the receptor level | – | –
COc1cc(C2CCC(c3cc(OC)c(OC)c(OC)c3)O2)cc(OC)c1OC [L-652,731] | potent PAF receptor antagonists | – | –
COC1=C[C@]23C[C@H](C[C@H](c4ccc5c(c4)OCO5)[C@H]2C)OC3=CC1=O [futoenone] | – | posesses PAF antagonist activity; also recorded: potent PAF antagonist activity | IC50 ([1]; human platelet assay in PRP, 0.1 μM PAF, read-out: IC50 value for platelet aggregation induced by 0.1 μM PAF): ~13.6 µM
COc1cc(C2CSC(c3cc(OC)c(OC)c(OC)c3)S2)cc(OC)c1OC (stereo not drawn) [compound 1, Cis and trans-2,4-bis-(3,4,5-trimethoxyphenyl)-1,3-dithiolane] | – | – | IC50 ([1]; Homo sapiens, PAF induced platelet aggregation, read-out: IC50 value, PAF-induced platelet aggregation): < 1 µM
COc1cc(C2CSC(c3cc(OC)c(OC)c(OC)c3)O2)cc(OC)c1OC (stereo not shown) [oxathiolane (F')] | – | much weaker antagonist of PAF-induced platelet aggregation than the corresponding dithiolane compound | –
CCCOc1c(OC)cc(C2CCC(c3cc(OC)c(OC)c(OC)c3)O2)cc1S(C)(=O)=O [L-659,989] | potent PAF receptor antagonists | – | –
